Experimental findings from patent publication US6635641B2 (Agouron Pharmaceuticals, Inc., priority 2000, dated 2003) are described below.

By Ki is commonly meant the dissociation constant of the complex between target and ligand, obtained from inhibition or displacement. The term inhibition denotes the change of the read-out against control, counted positive when it falls. What is called IC50 is the midpoint of a concentration-inhibition curve.

Where a name gives a salt, the structure may show the parent alone.

The target of the first assay is T1, phosphorylated VEGF-R2Δ50 (FLVK-P) (Homo sapiens, UniProt P35968, DEL940-989/E990V).
T1 construct: VEGF-R2Δ50 contains residues 806-939 and 990-1171; made in house; host or cells: baculovirus/insect cells
T1 sequence (P35968 with tags, fused parts or gaps DEL940-989/E990V limits assumed): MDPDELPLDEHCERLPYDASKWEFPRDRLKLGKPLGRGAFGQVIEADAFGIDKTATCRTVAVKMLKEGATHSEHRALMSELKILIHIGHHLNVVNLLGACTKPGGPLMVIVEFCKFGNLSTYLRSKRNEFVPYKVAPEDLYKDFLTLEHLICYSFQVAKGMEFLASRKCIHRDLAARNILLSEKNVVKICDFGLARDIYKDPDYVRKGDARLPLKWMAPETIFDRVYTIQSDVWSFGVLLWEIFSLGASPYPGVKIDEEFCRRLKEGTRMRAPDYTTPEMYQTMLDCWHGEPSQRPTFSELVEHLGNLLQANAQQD
Kind of assay: VEGF-R2 coupled spectrophotometric assay, phosphorylated construct (FLVK-P). Format: biochemical.
Details: not given
An excerpt: A construct (VEGF-R2Δ50) of the cytosolic domain of human vascular endothelial growth factor receptor 2 (VEGF-R2) lacking the 50 central residues of the 68 residues of the kinase insert domain was expressed in a baculovirus/insect cell system. Of the 1356 residues of full-length VEGF-R2, VEGF-R2Δ50 contains residues 806-939 and 990-1171, and also one point mutation (E990V) within the kinase insert domain relative to wild-type VEGF-R2. See commonly assigned, co-pending U.S. patent application Ser. No. 09/390,326, filed Sep. 7, 1999, incorporated by reference herein, for discussion of VEGF constructs and expression systems. Autophosphorylation of the purified construct was performed by incubation of the enzyme at a concentration of 4 μM in the presence of 3 mM ATP and 40 mM MgCl2 in 100 mM Hepes, pH 7.5, containing 5% glycerol and 5 mM DTT, at 4° C. for 2 h. […] See Parast et al., Biochemistry, 37, 16788-16801 (1998).
The production of ADP from ATP that accompanies phosphoryl transfer was coupled to oxidation of NADH using phosphoenolpyruvate (PEP) and a system having pyruvate kinase (PK) and lactic dehydrogenase (LDH). The oxidation of NADH was monitored by following the decrease of absorbance at 340 nm (e340=6.22 cm^−1 mM^−1) using a Beckman DU 650 spectrophotometer. Assay conditions for phosphorylated VEGF-R2Δ50 (indicated as FLVK-P in the tables below) were the following: 1 mM PEP; 250 μM NADH; 50 units of LDH/mL; 20 units of PK/mL; 5 mM DTT; 5.1 mM poly(E4Y1); 1 mM ATP; and 25 mM MgCl2 in 200 mM Hepes, pH 7.5. Assay conditions for unphosphorylated VEGF-R2Δ50 (indicated as FLVK in the tables) were the following: 1 mM PEP; 250 μM NADH; 50 units of LDH/mL; 20 units of PK/mL; 5 mM DTT; 20 mM poly(E4Y1); 3 mM ATP; and 60 mM MgCl2 and 2 mM MnCl2 in 200 mM Hepes, pH 7.5. Assays were initiated with 5 to 40 nM of enzyme. Ki values were determined by measuring enzyme activity in the presence of varying concentrations of test compounds. The data were analyzed using Enzyme Kinetic and Kaleidagraph software.
`Cc1c(Br)cc(NC(=O)c2cccc(CCc3cncc4ccccc34)c2)cc1Br` [Example S-5, N-(3,5-Dibromo-4-methyl-phenyl)-3-(2-isoquinolin-4-yl-ethyl)-benzamide]: the Ki turned out to be 4.2 nM.

Compound `CC(C)c1cccc(NC(=O)c2cccc(CSc3cnccn3)c2)c1` [Example A-7, N-(3-Isopropylphenyl)-3-[(pyrazin-2-yl)sulfanylmethyl]benzamide] displayed a Ki of 26 nM.

The assay is the same for the next values; noted with them: @ 50 nM; read-out: FLVK-P percent inhibition.
As for `Cc1ccc2cc(NC(=O)c3cccc(CCc4cncc5ccccc45)c3)ccc2n1` [Example S-4, 3-(2-Isoquinolin-4-yl-ethyl)-N-(2-methyl-quinolin-6-yl)-benzamide], the inhibition at 0.05 µM was determined as 20%.

The target in another assay is T2, unphosphorylated VEGF-R2Δ50 (FLVK) (Homo sapiens, UniProt P35968, DEL940-989/E990V).
T2 construct: VEGF-R2Δ50 contains residues 806-939 and 990-1171; made in house; host or cells: baculovirus/insect cells
T2 sequence (P35968 with tags, fused parts or gaps DEL940-989/E990V limits assumed): as above
Kind of assay: VEGF-R2 coupled spectrophotometric assay, unphosphorylated construct (FLVK).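 Further: Baculovirus-expressed cytosolic kinase domain, ADP formation linked via pyruvate kinase and lactate dehydrogenase to NADH oxidation, read as falling absorbance at 340 nm.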 In kind it is biochemical.
Details: not given
Turning to `Cc1ccc(C(=O)Nc2cccc(CSc3ncnc4[nH]ncc34)c2)cc1Br` [Example V-1], the Ki is 2 nM.

For the compound `O=C(Nc1ccc(N2CCNCC2)c(C(F)(F)F)c1)c1ccc(F)c(OCc2cnc3ccccc3c2)c1` [Example R-17, 4-Fluoro-N-(4-piperazin-1-yl-3-trifluoromethyl-phenyl)-3-(quinolin-3-ylmethoxy)-benzamide], the Ki is 7.4 nM.

Turning to `COc1ccc(Nc2cc(CCc3cccc(C(=O)Nc4ccc(N5CCN(C(=O)OC(C)(C)C)CC5)c(C(F)(F)F)c4)c3)[nH]n2)cn1` [Example G-9, 3-{2-[5-(6-Methoxypyridin-3-yl)amino-2H-pyrazol-3-yl]-ethyl}-N-[4-(4-t-butoxycarbonylpiperazin-1-yl)-3-trifluoromethylphenyl]benzamide], the Ki is 2.5 nM.

Turning to `Cc1cc(NC(=O)c2cc(CCc3cncc4ccccc34)c(F)cc2F)ccc1C(C)C` [Example S-8, 2,4-Difluoro-N-(4-isopropyl-3-methyl-phenyl)-5-(2-isoquinolin-4-yl-ethyl)-benzamide], the Ki worked out at 1.4 nM.

Compound `CC1CCc2cc(NC(=O)c3ccc(F)c(OCc4cncc5ccccc45)c3)ccc2N1` (stereo not drawn) [Example O-3, 4-Fluoro-N-(2-methyl-1,2,3,4-tetrahydroquinolin-6-yl)-3-(isoquinolin-4-yl-methoxy)-benzamide bistrifluoroacetic acid salt] came in with a Ki of 5.8 nM.

Staying with this assay, now noted: 0.05 µM.
`Cl.Cl.NC(=O)c1cncc(CCc2cccc(C(=O)Nc3ccc(N4CCNCC4)c(C(F)(F)F)c3)c2)c1` [CC-1, 5-{2-[3-(Piperazin-1-yl-trifluoromethyl-phenylcarbamoyl)-phenyl]-ethyl}-nicotinamide dihydrochloride] displayed an FLVK percent inhibition of 20% @.

For “5-{2-[3-(Piperazin-1-yl-trifluoromethyl-phenylcarbamoyl)-phenyl]-ethyl}nicotinic acid methyl ester dihydrochloride [CC-2]”, the FLVK percent inhibition is recorded as 30% @.

Staying with this assay, now noted: @ 50 nM; read-out: FLVK percent inhibition.
As for `O=C(Nc1cccc(CSc2ncnc3[nH]ncc23)c1)c1ccc2cc[nH]c2c1` [Example V-13, N-{3-[(1H-pyrazolo[3,4-d]-pyrimidin-4-yl)sulfanylmethyl]phenyl}-indole-6-carboxamide], the inhibition at 0.05 µM came to 17%.

For `O=C(Nc1cccc(CSc2ncnc3[nH]ncc23)c1)c1ccc2ncccc2c1` [Example V-11, N-{3-[(1H-pyrazolo[3,4-d]-pyrimidin-4-yl)sulfanylmethyl]phenyl}-quinoline-6-carboxamide], the inhibition at 0.05 µM amounted to 18%.

Consider `O=C(Nc1cccc(CSc2ncnc3[nH]ncc23)c1)c1cc2cc(F)ccc2[nH]1` [Example V-12, 5-Fluoro-N-{3-[(1H-pyrazolo[3,4-d]-pyrimidin-4-yl)sulfanylmethyl]-phenyl}-indole-2-carboxamide], for which the inhibition at 0.05 µM is 18%.

As to `O=C(Nc1cccc2c1OC(F)(F)O2)c1cccc(CCc2cncc3ccccc23)c1` [Example O-2, N-(2,2-Difluoro-benzo[1,3]dioxol-4-yl)-3-(2-isoquinolin-4-yl-ethyl)-benzamide trifluoro-acetic acid salt], the inhibition at 0.05 µM was determined as 13%.

Turning to `O=C(Nc1cc(Cl)c(-n2ccnc2)c(Cl)c1)c1ccc(F)c(OCc2cccnc2)c1` [Example R-24, N-(3,5-Dichloro-4-imidazol-1-yl-phenyl)-4-fluoro-3-(pyridin-3-ylmethoxy)-benzamide], the inhibition at 0.05 µM was 62%.

With `CCC(C(=O)Nc1cccc(CSc2ncnc3[nH]ncc23)c1)c1ccccc1C` (racemic) [Example V-15], the inhibition at 0.05 µM is 30%.

Regarding `O=C(Nc1ccc(-n2ccnc2)c(C(F)(F)F)c1)c1ccc(F)c(OCc2cccnc2)c1` [Example R-21, 4-Fluoro-N-(4-imidazol-1-yl-3-trifluoromethyl-phenyl)-3-(pyridin-3-ylmethoxy)-benzamide], the inhibition at 0.05 µM was 42%.

With `O=C(Nc1cccc(CSc2ncnc3[nH]ncc23)c1)c1ccc(Oc2ccccc2)cc1` [Example V-6, N-{3-[(1H-pyrazolo[3,4-d]-pyrimidin-4-yl)sulfanylmethyl]phenyl}-(4-phenoxy)benzamide], the inhibition at 0.05 µM came to 12%.

As for `O=C(Nc1ccc(-n2cncn2)c(C(F)(F)F)c1)c1ccc(F)c(OCc2cccnc2)c1` [Example R-23, 4-Fluoro-3-(pyridin-3-ylmethoxy)-N-(4-[1,2,4]triazol-1-yl-3-trifluoromethyl-phenyl)-benzamide], the inhibition at 0.05 µM is 50%.

In the case of `O=C(Nc1cccnc1)Nc1cccc(CSc2ncnc3[nH]ncc23)c1` [Example V-8, N-{3-[(1H-pyrazolo[3,4-d]pyrimidin-4-ylsulfanyl)methyl]phenyl}-N′-(pyridin-3-yl)urea], the inhibition at 0.05 µM turned out to be 0%.

Still in this assay, the particulars now being: @ 50 μM; read-out: FLVK percent inhibition.
With `O=C(Nc1cccc(CSc2ncnc3[nH]ncc23)c1)c1ccc(O)c(Br)c1` [Example V-10, 3-Bromo-4-hydroxy-N-{3-[(1H-pyrazolo[3,4-d]-pyrimidin-4-yl)sulfanylmethyl]phenyl}-benzamide], the inhibition at 50 µM is 16%.

Still in this assay, the particulars now being: unphosphorylated VEGF-R2 construct.
`CC(C)(C)c1cc(C(=O)Nc2cccc(CSc3ncnc4[nH]ncc34)c2)cc(C(C)(C)C)c1` [Example V-9, N-{3-[(1H-pyrazolo[3,4-d]-pyrimidin-4-yl)sulfanylmethyl]phenyl}-(3,5-di-t-butyl)benzamide]: the affinity, expressed as Ki, was 22 nM.

`O=C(Nc1ccc(N2CCNCC2)c(C(F)(F)F)c1)c1cccc(CCc2cnc3[nH]cnc3c2)c1` [BB-1, 3-[2-(3H-Imidazo[4,5-b]pyridin-6-yl)-ethyl]-N-(4-piperazin-1-yl-3-trifluoromethyl-phenyl)-benzamide dihydrochloride] had an inhibition constant Ki of 10.8 nM.

Compound `O=C(Nc1cccc(CSc2ncnc3[nH]ncc23)c1)Nc1cc(C(F)(F)F)cc(C(F)(F)F)c1` [Example V-7, N-{3-[(1H-pyrazolo[3,4-d]pyrimidin-4-ylsulfanyl)methyl]phenyl}-N′-[3,5-bis-(trifluoromethyl)phenyl]urea] gave a Ki of 2.6 nM.

The compound `CC(C)(C)c1ccc(C(=O)Nc2cccc(CSc3ncnc4[nH]ncc34)c2)cc1` [Example V-5, N-{3-[(1H-pyrazolo[3,4-d]-pyrimidin-4-yl)sulfanylmethyl]phenyl}-4-t-butylbenzamide] had a Ki of 1.4 nM.

Another assay relates to human umbilical vein endothelial cells (HUVEC). Kind of assay: HUVEC proliferation assay (VEGF-stimulated, MTT). As to conditions: Homo sapiens, HUVEC; read-out: HUVEC IC50. In kind it is cell-based. As for the experimental part:
This assay determines the ability of a test compound to inhibit the growth factor-stimulated proliferation of human umbilical vein endothelial cells (“HUVEC”). HUVEC cells (passage 3-4, Clonetics, Corp.) were thawed into EGM2 culture medium (Clonetics Corp) in T75 flasks. Fresh EGM2 medium was added to the flasks 24 hours later. Four or five days later, cells were exposed to another culture medium (F12K medium supplemented with 10% fetal bovine serum (FBS), 60 μg/ml endothelial cell growth supplement (ECGS), and 0.1 mg/ml heparin). Exponentially-growing HUVEC cells were used in experiments thereafter. Ten to twelve thousand HUVEC cells were plated in 96-well dishes in 100 μl of rich, culture medium (described above). The cells were allowed to attach for 24 hours in this medium. The medium was then removed by aspiration and 105 μl of starvation media (F12K+1% FBS) was added to each well. After 24 hours, 15 μl of test agent dissolved in 1% DMSO in starvation medium or this vehicle alone was added into each treatment well; the final DMSO concentration was 0.1%. One hour later, 30 μl of VEGF (30 ng/ml) in starvation media was added to all wells except those containing untreated controls; the final VEGF concentration was 6 ng/ml. Cellular proliferation was quantified 72 hours later by MTT dye reduction, at which time cells were exposed for 4 hours MTT (Promega Corp.). Dye reduction was stopped by addition of a stop solution (Promega Corp.) and absorbance at 595 λ was determined on a 96-well spectrophotometer plate reader.
Consider `Cc1c(Br)cc(NC(=O)c2cccc(CCc3cncc4ccccc34)c2)cc1Br` [Example S-5, N-(3,5-Dibromo-4-methyl-phenyl)-3-(2-isoquinolin-4-yl-ethyl)-benzamide], for which the IC50 is above 300 nM.

In the case of `O=C(Nc1ccc(N2CCNCC2)c(C(F)(F)F)c1)c1ccc(F)c(OCc2cnc3ccccc3c2)c1` [Example R-17, 4-Fluoro-N-(4-piperazin-1-yl-3-trifluoromethyl-phenyl)-3-(quinolin-3-ylmethoxy)-benzamide], the IC50 was determined as 32 nM.

In the case of `CC(C)c1cccc(NC(=O)c2cccc(CSc3cnccn3)c2)c1` [Example A-7, N-(3-Isopropylphenyl)-3-[(pyrazin-2-yl)sulfanylmethyl]benzamide], the IC50 was above 700 nM.

As to `Cc1ccc2cc(NC(=O)c3cccc(CCc4cncc5ccccc45)c3)ccc2n1` [Example S-4, 3-(2-Isoquinolin-4-yl-ethyl)-N-(2-methyl-quinolin-6-yl)-benzamide], the IC50 is above 300 nM.

Staying with this assay, now noted: Homo sapiens; HUVEC proliferation with albumin; read-out: Huvec + Albumin IC50.
Take `O=C(Nc1ccc(N2CCNCC2)c(C(F)(F)F)c1)c1cccc(CCc2cnc3[nH]cnc3c2)c1` [BB-1, 3-[2-(3H-Imidazo[4,5-b]pyridin-6-yl)-ethyl]-N-(4-piperazin-1-yl-3-trifluoromethyl-phenyl)-benzamide dihydrochloride]: the IC50 came to 940 nM.
